Experimental findings from patent US20080057534A1, “Microbe-sensitive indicators and use of the same” (Kimberly-Clark Worldwide, Inc., priority 2006, published 2008) are described below.

One data set deals with aged chicken juice. Nature of the data set: Dye spots on woven cotton fabric, aged chicken juice. The source says: A transparent film covering half of a fresh chicken on a polystyrene tray (from supermarket) was stored at room temperature for three weeks. The pale yellow juices that collected in the polystyrene tray were collected using a pipette and used for tests.
A 47-mg quantity of 1-docosyl-4-(4-hydroxystyryl)-pyridinium bromide (from Aldrich Chemical) was mixed with 10 g dimethylformamide. A small amount of solids remained after shaking and settling. The orange supernatant fluid was dropped onto woven cotton fabric of basis weight (29.2 cm×20.3 cm=6.888 g) to make orange-yellow colored circles. One drop of 1N sodium hydroxide solution was added to one orange-yellow spot on the cotton fabric, changing the color from orange-yellow to a pinkish orange.
The color change was rapid on cotton.

For another data set, the system named is microbe contamination. Briefly: Microbe-insensitivity of signal graphic colorants.
For data set [1], the system named is bacteria and other microbes in aged urine. Briefly: Merocyanine dye coated paper towel, aged female human urine. Here is the method: Female human urine was collected and stored in a glass jar at room temperature for 8 days. N-methyl merocyanine dye of the structure below was synthesized as described above. A 0.5-g quantity of the dye was dissolved in 20 ml deionized water and coated onto a SCOTT® kitchen roll paper towel by dipping the towel into the solution, allowing the excess to drip off, and then allowing the coated toweling to dry at ambient conditions. The paper towel was stained a deep orange color by the dye.
As a control, the aged urine was filtered through a 0.2 micron filter to remove bacteria and other microbes.
Female human urine was collected and stored for 24 hours at 37° C. Pooled female urine may be expected to have a bacterial loading of approximately 1×10^5 CFU/ml after storage under these conditions. A 0.5-g quantity of N-methyl merocyanine dye, synthesized as described above, was dissolved in 20 ml deionized water and coated onto a SCOTT® kitchen roll paper towel by dipping the towel into the solution, allowing the excess to drip off, and then allowing the coated toweling to dry at ambient conditions. The paper towel was stained a deep orange color by the dye.

Data set [2] concerns budgie feces suspension in tap water. Briefly: Merocyanine dye coated paper towel, budgerigar feces suspension. As to conditions: coated SCOTT towel, drops of suspension. Here is the method: Budgerigar feces was collected from a caged pet budgie, and shaken in approximately 10 ml of Atlanta city domestic tap water. A 0.5-g quantity of N-methyl merocyanine dye, synthesized as described above, was dissolved in 20 ml deionized water and coated onto a SCOTT® kitchen roll paper towel by dipping the towel into the solution, allowing the excess to drip off, and then allowing the coated toweling to dry at ambient conditions. The paper towel was stained a deep orange color by the dye. […] As a control, Atlanta city domestic tap water was dropped onto a different area of the towel and while the color was diluted somewhat by the water, the area remained orange.

In data set [3] the test system is S. aureus. Briefly: Reichardt's dye coated self-adhesive stickers, transfer of bacteria by gloved hand. As to conditions: 160 mg/10 mL and 80 mg/10 mL acetonitrile coatings; 10^7 CFU/mL S. aureus. As to the method: A sheet of paper self-adhesive stickers (Avery-Dennison) was also brush-coated with two different concentrations of Reichardt's dye solution (160 mg/10 mL acetonitrile, 80 mg/10 mL acetonitrile). The stickers were applied to the lid and latch mechanism of a Huggies® Wet Wipes box. A gloved hand was used to transfer 10^7 CFU/mL S. aureus to the surface of the stickers.

Data set [4] can be described thus: De-colorization by acid (model of microbial contamination) and reversal by strong base. In kind it is physicochemical. As to the method:
A CCI Multigloss yellow base pigment (available from Color Converting, Inc. of Hazleton, Pa.) was applied to a white SMS (spunbond/meltblown/spunbond) nonwoven material (available from Kimberly-Clark Corporation of Irving, Tex.) using a standard hand roller. The treated nonwoven was oven-dried at 100° C. for approximately five minutes. A solution of Reichardt's dye was prepared by mixing about 200 mg of Reichardt's dye (obtained from Sigma-Aldrich of St. Louis, Mo.) with approximately 5 g of octanol (obtained from Sigma-Aldrich). This solution was then applied in the shape of a “t” to the dried yellow pigment on the nonwoven material using a clean hand roller. A control material was prepared by applying the Reichardt's dye/octanol mixture in the “t” pattern to a sheet of untreated white SMS nonwoven material. The samples were again oven-dried at 100° C. for approximately five minutes. In previous studies, it has been discovered that strong acids can also cause de-colorization of the dye in a manner that is representative of microbial contamination. Thus, strong acids are sometimes used to model the reaction of a microbe for initial experiments. A drop of pH 2 Aldrich buffer was applied to both the control and test substrates in three places and allowed to react for three minutes. […] An observation was made that the yellow color became even more visible as time passed (presumably due to the complete de-colorization of all dye molecules in the area of the drop as the acid dried).
This experiment illustrated the ability of a strong base to reverse decolorization of Reichardt's dye. Several drops of Reichardt's dye (160 mg in 10 ml of acetonitrile) were pipetted onto a SCOTT® towel and allowed to dry. […] The blue/purple color of Reichardt's dye returned after the 1 N NaOH was added.

In data set [5] the test system is aged chicken juice known to have a high bacterial count. Briefly: Dye coating on ceramic surface with and without TWEEN 80, drop of aged chicken juice. The following applies: 80 mg/10 mL acetonitrile with TWEEN 80 (200 μL). Here is the method:
A solution of Reichardt's dye (80 mg/10 mL acetonitrile) and TWEEN® 80 (200 μL) polyoxyethylene surfactant (from Fischer Scientific, Pittsburgh, Pa.) was prepared. This solution was then used to coat a ceramic surface and allowed to air dry. A second solution of Reichardt's dye (80 mg/10 mL acetonitrile) without surfactant was placed on the surface and allowed to air dry as well. After drying, a drop of aged chicken juice known to have a high bacterial count was placed on each coating area. […] Furthermore, the addition of TWEEN® surfactant allowed for easy removal of the dye from the surface.

The subject of the next data set is E. coli (ATCC #8739). Briefly: Reichardt's dye coated paper, response to bacterial contamination. The following applies: paper brush-coated with 80 mg/10 mL acetonitrile; 100 μL aliquots of 10^7 to 10^4 CFU/mL. As to the method: (§1) This experiment illustrated the ability of a surface coating of Reichardt's dye to respond to bacterial contamination. A sheet of paper was brush-coated with a Reichardt's dye solution (80 mg/10 mL acetonitrile). To this paper was added 100 μL aliquots of 10^7, 10^6, 10^5, and 10^4CFU/mL E. coli (ATCC #8739) or S. aureus (ATCC #6538) solutions. Water was used as a negative control. The dye color was rapidly discharged when contaminated by both types of bacteria, but more rapidly for the S. aureus. It was later determined that while both bacteria solutions were indeed at 10^7 CFU/mL concentrations, the actual concentration of the S. aureus solution was 7×10^7 CFU/mL compared to 1×10^7 CFU/mL for the E. coli solution.

The subject of another data set is S. aureus (ATCC #6538). Described as above. As to conditions: paper brush-coated with 80 mg/10 mL acetonitrile; 100 μL aliquots of 10^7 to 10^4 CFU/mL. As to the method:
as §1

Data set [6] deals with S. aureus. Briefly: Reichardt's dye coatings from different solvents on towels, S. aureus aliquots. The following applies: for color change of coating: 100 μl S. aureus. Here is the method:
The behavior of Reichardt's dye coatings made using various different solvents was evaluated. Solutions of Reichardt's dye in acetonitrile, isopropanol, and xylenes were prepared and the solutions were used to coat SCOTT® kitchen rolls towels and allowed to air-dry.

A further data set concerns E. coli bacteria. Briefly: Reichardt's dye/TMB coated towel, E. coli suspension drop-wise. As to conditions: coating of Reichardt's dye and TMB on SCOTT paper towel. The source says:
Additionally, a SCOTT® paper towel having a coating of Reichardt's dye and TMB chemistries was exposed to suspension of E. coli bacteria drop-wise. The towel area that came in contact with the bacteria decolorized to a white spot in less than 10 seconds.

Data set [7] in a line: Reichardt's dye/TMB coated towel, dilute bleach solution. In kind it is physicochemical. As to conditions: mixture of Reichardt's dye and TMB on SCOTT paper towel. The source says: A mixture of Reichardt's dye and 3,3′,5,5′-tetramethylbenzidine (TMB) was coated onto a SCOTT® paper towel and allowed to air-dry.

In the case of `CCCCCCCCCCCCCCCCCCCCCC[n+]1ccc(C=Cc2ccc(O)cc2)cc1.[Br-]` [1-docosyl-4-(4-hydroxystyryl)-pyridinium bromide], the color change result in the data set with aged chicken juice (orange-yellow spots on cotton fabric) is listed as “color change to very pale yellow”; in the data set on aged chicken juice (pinkish-orange areas (dye + NaOH soln.) on cotton), “color change from pinkish-orange to very pale yellow”.
For the molecule `Cc1ccc(Nc2ccc(Nc3ccc(C)cc3S(=O)(=O)[O-])c3c2C(=O)c2ccccc2C3=O)c(S(=O)(=O)[O-])c1.[Na+].[Na+]` [Acid Green 25], the sensitivity to microbes entry in the data set on microbe contamination was “fairly microbe-insensitive”.
For `COc1cc(/C=C/c2cc[n+](C)cc2)ccc1[O-]` [N-methyl merocyanine dye], the color change entry in data set [1] (urine stored 24 hours at 37° C., approx. 1×10^5 CFU/ml expected) is “immediate color change from deep orange to pale yellow”; in data set [1] (urine stored 24 hours at 37° C., filtered through 0.2 micron filter (control)), “did not cause a color change”; in [1] (urine stored 8 days, filtered through 0.2 micron filter (control)), “did not cause a color change”; in data set [1] (urine stored at room temperature for 8 days), “immediate color change from deep orange to pale yellow”; in data set [2] it was “immediate color change from deep orange to pale yellow”.
`[O-]c1c(-c2ccccc2)cc(-[n+]2c(-c3ccccc3)cc(-c3ccccc3)cc2-c2ccccc2)cc1-c1ccccc1` [Reichardt's dye, 4-(2,4,6-triphenylpyridinium-1-yl)-2,6-diphenylphenolate]: the “color discharge of coated stickers” value in the data set on S. aureus [3] is listed as “rapidly de-colorized”. In addition, in [4] (160 mg in 10 ml acetonitrile on SCOTT towel, acetic acid and Aldrich buffer pH 2.0), the “color change on acid” value is reported as “rapid de-colorization”. In addition, the “reversal of decolorization by base” value in data set [4] (drop of 1 N NaOH on acid-decolorized spots) is “rapid re-colorization”. In addition, in [4] (drop of pH 2 Aldrich buffer on SMS nonwoven over yellow pigment, three minutes), the “de-colorization revealing underlying pigment” value is given as “underlying yellow color was clearly visible”. In data set [5], the “de-colorization faster than area without TWEEN surfactant” value was 20 to 30 s. For the same molecule, the time of de-colorization in the data set with E. coli (ATCC #8739) and in the data set on S. aureus (ATCC #6538) was under 1 min throughout. The “color change of coating” value in the data set with S. aureus [6] (acetonitrile solution-based coating) is on record as “rapid de-colorization”; in the data set with S. aureus [6] (isopropanol solution-based coating), “No visible color change”; in the data set with S. aureus [6] (xylenes solution-based coating), “No visible color change”. In addition, the “decolorization in response to microbial contamination” value in the data set on S. aureus [6] (isopropanol as solvent, dye concentration adjusted) is “readily and easily observed”. Also, the “time to decolorize to a white spot” value in the data set on E. coli bacteria is given as “less than 10 seconds”. For the same molecule, in [7], the “color response to bleach” value is given as “de-colorizing”.
Turning to `Cc1cc(-c2cc(C)c(N)c(C)c2)cc(C)c1N` [TMB, 3,3′,5,5′-tetramethylbenzidine], in the data set with E. coli bacteria, the “bleach indicator color development on bacteria” value is given as “No orange/yellow color was observed to develop”. The “color response to bleach” value in data set [7] is reported as “turning orange/yellow color”.
